Data set [1] has as its system HeLa cells expressing mt-Keima and YFP-Parkin (HeLa MKYP). As to the kind of experiment: Human mt-Keima mitophagy assay. Format: cell-based. The following applies: Homo sapiens. As for the experimental part: Briefly, HeLa cells expressing mt-Keima and YFP-Parkin (HeLa MKYP) were plated at 10,000 cells/well in 96 well plates along with compounds at various concentrations. Following 16 hrs of incubation, cells were treated with 1 uM FCCP/oligomycin for 6 hours, then analyzed via FACS for the presence of mitochondria in lysosomes (as determined by an emissions spectrum shift from the pH-sensitive mt-Keima tag).

Data set [2] relates to SKOV3 cells. Briefly: In vitro mitosafety (glucose/galactose) assay. The following applies: highest mito-safe dose = highest concentration at which gal/glc>0.80 (IC20) in SKOV3 cells, divided by mt-Keima EC50.
Description: Briefly, SKOV3 cells (ATCC HTB-77) were plated in DMEM (Corning 10-013-CV) medium containing 25 mM glucose or DMEM with no glucose (Gibco 11966-025) supplemented with 10 mM galactose at 9,000 cells/well in 96 well plates (Corning costar 3610). 24 hrs later, compounds, in DMSO, were added at various concentrations to a final 0.1% DMSO for all wells. […] After a 15 minute incubation cellular ATP levels were read out using a Promega GloMax® DiscoverMicroplate Reader.
The ratio of relative CellTiter-Glo values from cells grown in galactose to cells grown in glucose was determined (gal/glc ratio). The gal/glc ratio vs concentration is then graphed, and non-linear regression is used to find the highest concentration of MTK compound at which gal/glc>0.80 (the “highest mito-safe dose”, or IC20).
[3] abbreviates: HeLa MKYP cells, 16 hrs with compound, then 1 uM FCCP/oligomycin for 6 hours, FACS, read-out: EC50 in HeLa mt-Keima Mitophagy Assay.

Several values for one entry are separate records, joined by “and”; a condition that tells them apart may be missing. Equal values may be shown once. Read-outs that look alike come from different tables or passages of the source. Where only a bound is given, the exact number is not on record here.

The term EC50 denotes the concentration needed to bring the measured effect to its halfway point. For the compound `CC(C)(C#N)CC[C@@H]1COc2ccccc2[C@H]1Nc1ncnc2[nH]c(C3CC3)cc12` (relative stereo) [EP-0042291, 4-[trans-4-[(6-cyclopropyl-7H-pyrrolo[2,3-d]pyrimidin-4-yl)amino]chroman-3-yl]-2,2-dimethyl-butanenitrile], in data set [1] (setting [3]), the EC50 was determined as 78 nM. Also, in data set [2], the “Mito-Safety Index (highest mito-safe dose/mt-Keima EC50)” value (“Mito-Safety Index” for short) was 64.67.

Take `FC(F)(F)c1cc2c(N[C@H]3CC4(CCCC4)Oc4ccccc43)ncnc2[nH]1` (single isomer, unassigned) [EP-0041356, N-spiro[chromane-2,1′-cyclopentane]-4-yl-6-(trifluoromethyl)-7H-pyrrolo[2,3-d]pyrimidin-4-amine]: the EC50 in data set [1] (setting [3]) came out at 414 nM. Also, the “Mito-Safety Index” value in data set [2] stood at 60.24.

Turning to `COCC[C@@H]1COc2ccccc2[C@H]1Nc1ncnc2[nH]c(C(F)(F)F)cc12` (single isomer, unassigned) [EP-0041398, N-[trans-3-(2-methoxyethyl)chroman-4-yl]-6-(trifluoromethyl)-7H-pyrrolo[2,3-d]pyrimidin-4-amine], the EC50 in data set [1] (setting [3]) was 356 nM. In addition, the “Mito-Safety Index” value in data set [2] stood at 43.54.

`COCCCC1COc2ccccc2C1Nc1ncnc2[nH]c(C(F)(F)F)cc12` (single isomer, unassigned) [EP-0041483, N-[3-(3-methoxypropyl)chroman-4-yl]-6-(trifluoromethyl)-7H-pyrrolo[2,3-d]pyrimidin-4-amine]: the EC50 in data set [1] (setting [3]) came out at 70 nM. Further, the “Mito-Safety Index” value in data set [2] came out at 48.05.

On to `CC(C)(C#N)CCC1COc2ccccc2C1Nc1ncnc2[nH]c(C3CC3)cc12` (single isomer, unassigned) [EP-0042850, 4-[trans-4-[(6-cyclopropyl-7H-pyrrolo[2,3-d]pyrimidin-4-yl)amino]chroman-3-yl]-2,2-dimethyl-butanenitrile], for which the EC50 in data set [1] (setting [3]) was found to be 90 nM. Further, the “Mito-Safety Index” value in data set [2] was determined as 70.99.

Regarding `COC[C@]1(C)C[C@@H](Nc2ncnc3[nH]c(C(F)(F)F)cc23)c2ccccc2O1` (single isomer, unassigned) [EP-0043980], in data set [1] (setting [3]), the EC50 was 100 nM. Also, the “Mito-Safety Index” value in data set [2] was 73.0.

As for `CC(C)(C#N)CO[C@@H]1COc2ccccc2[C@H]1Nc1ncnc2[nH]c(C3CC3)cc12` (stereo in doubt) [EP-0042976, 3-[(3S,4R)-4-[(6-cyclopropyl-7H-pyrrolo[2,3-d]pyrimidin-4-yl)amino]chroman-3-yl]oxy-2,2-dimethyl-propanenitrile], the EC50 in data set [1] (setting [3]) was 53 nM. Moreover, in data set [2], the “Mito-Safety Index” value is 302.16.

As for `FC(F)(F)c1cc2c(NC3CC4(CCCC4)Oc4ccccc43)ncnc2[nH]1` (stereo not drawn) [EP-0041220], the EC50 in data set [1] (setting [3]) was 608 nM. Besides, the “Mito-Safety Index” value in data set [2] stood at 41.11.

As to `COCC[C@H]1COc2ccccc2[C@@H]1Nc1ncnc2[nH]c(C(F)(F)F)cc12` [EP-0041252], the EC50 in data set [1] (setting [3]) worked out at 634 nM. Besides, the “Mito-Safety Index” value in data set [2] was found to be 39.13.

As to `COCCO[C@H]1COc2cc(F)ccc2[C@@H]1Nc1ncnc2[nH]c(C3CC3)cc12` [EP-0042287, 6-cyclopropyl-N-[(3R,4S)-7-fluoro-3-(2-methoxyethoxy)chroman-4-yl]-7H-pyrrolo[2,3-d]pyrimidin-4-amine], the EC50 in data set [1] (setting [3]) turned out to be 180 nM. Besides, the “Mito-Safety Index” value in data set [2] is 38.56.

As to `COCCO[C@H]1COc2cc(F)ccc2[C@@H]1Nc1ncnc2[nH]c(C(F)(F)F)cc12` [EP-0042288, N-[(3R,4S)-7-fluoro-3-(2-methoxyethoxy)chroman-4-yl]-6-(trifluoromethyl)-7H-pyrrolo[2,3-d]pyrimidin-4-amine], in data set [1] (setting [3]), the EC50 was 397 nM. For the same compound, the “Mito-Safety Index” value in data set [2] was 40.57.

On to `COCCCO[C@H]1COc2ccccc2[C@@H]1Nc1ncnc2[nH]c(C3CC3)cc12` [EP-0042529, 4,6-cyclopropyl-N-[(3R,4S)-3-(3-methoxypropoxy)chroman-4-yl]-7H-pyrrolo[2,3-d]pyrimidin-4-amine], for which the EC50 in data set [1] (setting [3]) was determined as 95 nM. Also, the “Mito-Safety Index” value in data set [2] came to 80.20.

`COC(C)(C)CO[C@H]1COc2ccccc2[C@@H]1Nc1ncnc2[nH]c(C3CC3)cc12` [EP-0042538, 6-cyclopropyl-N-[(3R,4S)-3-(2-methoxy-2-methyl-propoxy)chroman-4-yl]-7H-pyrrolo[2,3-d]pyrimidin-4-amine]: the EC50 in data set [1] (HeLa, refers to the table, read-out: EC50) is below 0.03 nM; in data set [1] (setting [3]), 30 nM. For the same compound, in data set [2], the “Mito-Safety Index” value is 51.11.

Take `CC(C)(O)CO[C@H]1COc2ccccc2[C@@H]1Nc1ncnc2[nH]c(C3CC3)cc12` [EP-0042541, 1-[(3R,4S)-4-[(6-cyclopropyl-7H-pyrrolo[2,3-d]pyrimidin-4-yl)amino]chroman-3-yl]oxy-2-methyl-propan-2-ol]: the half-maximal effective concentration (EC50) in data set [1] (setting [3]) worked out at 123 nM. Besides, the “Mito-Safety Index” value in data set [2] was 50.82.

`COC(C)(C)CO[C@H]1COc2ccccc2[C@@H]1Nc1ncnc2[nH]c(C(F)(F)F)cc12` [EP-0042655, N-[(3R,4S)-3-(2-methoxy-2-methyl-propoxy)chroman-4-yl]-6-(trifluoromethyl)-7H-pyrrolo[2,3-d]pyrimidin-4-amine]: the EC50 in data set [1] (setting [3]) amounted to 119 nM. Besides, the “Mito-Safety Index” value in data set [2] came out at 38.50.

On to `CC(C)(O)CO[C@H]1COc2ccccc2[C@@H]1Nc1ncnc2[nH]c(C(F)(F)F)cc12` [EP-0042979, 2-methyl-1-[(3R,4S)-4-[[6-(trifluoromethyl)-7H-pyrrolo[2,3-d]pyrimidin-4-yl]amino]chroman-3-yl]oxy-propan-2-ol], for which the EC50 in data set [1] (setting [3]) came out at 468 nM. Besides, the “Mito-Safety Index” value in data set [2] came out at 53.45.

Consider `CC(C)(C#N)CO[C@H]1COc2ccccc2[C@@H]1Nc1ncnc2[nH]c(C(F)(F)F)cc12` [EP-0043230, 2,2-dimethyl-3-[(3R,4S)-4-[[6-(trifluoromethyl)-7H-pyrrolo[2,3-d]pyrimidin-4-yl]amino]chroman-3-yl]oxy-propanenitrile], for which the EC50 in data set [1] (setting [3]) was 417 nM. Also, in data set [2], the “Mito-Safety Index” value is reported as 43.73.

Regarding `CC(C)(F)CO[C@H]1COc2ccccc2[C@@H]1Nc1ncnc2[nH]c(C(F)(F)F)cc12` [EP-0043741, N-[(3R,4S)-3-(2-fluoro-2-methyl-propoxy)chroman-4-yl]-6-(trifluoromethyl)-7H-pyrrolo[2,3-d]pyrimidin-4-amine], the EC50 in data set [1] (setting [3]) stood at 510 nM. Also, the “Mito-Safety Index” value in data set [2] was found to be 49.0.

Consider `FC(F)(F)c1cc2c(N[C@H]3c4ccccc4OC[C@@H]3OCC3CC3)ncnc2[nH]1` [EP-0043810, N-((3R,4S)-3-(cyclopropylmethoxy)chroman-4-yl)-6-(trifluoromethyl)-7H-pyrrolo[2,3-d]pyrimidin-4-amine], for which the EC50 in data set [1] (setting [3]) is 540 nM. The “Mito-Safety Index” value in data set [2] is listed as 46.3.

`CCO[C@H]1COc2ccccc2[C@@H]1Nc1ncnc2[nH]c(C(F)(F)F)cc12` [EP-0043811, N-((3R,4S)-3-ethoxychroman-4-yl)-6-(trifluoromethyl)-7H-pyrrolo[2,3-d]pyrimidin-4-amine]: the EC50 in data set [1] (setting [3]) is 930 nM. Also, the “Mito-Safety Index” value in data set [2] is on record as 26.9.

`CC(C)CO[C@H]1COc2ccccc2[C@@H]1Nc1ncnc2[nH]c(C(F)(F)F)cc12` [EP-0043813, N-((3R,4S)-3-isobutoxychroman-4-yl)-6-(trifluoromethyl)-7H-pyrrolo[2,3-d]pyrimidin-4-amine]: in data set [1] (setting [3]), the EC50 stood at 170 nM. In addition, the “Mito-Safety Index” value in data set [2] was found to be 147.1.

Take `Fc1ccc2c(c1)OC[C@H](OCC1CC1)[C@H]2Nc1ncnc2[nH]c(C(F)(F)F)cc12` [EP-0043819, N-((3R,4S)-3-(cyclopropylmethoxy)-7-fluorochroman-4-yl)-6-(trifluoromethyl)-7H-pyrrolo[2,3-d]pyrimidin-4-amine]: the EC50 in data set [1] (setting [3]) is 680 nM. Besides, in data set [2], the “Mito-Safety Index” value worked out at 36.7.

With `FC(F)(F)c1cc2c(N[C@H]3c4ccccc4OC[C@@H]3OCC3COC3)ncnc2[nH]1` [EP-0043826, N-((3R,4S)-3-(oxetan-3-ylmethoxy)chroman-4-yl)-6-(trifluoromethyl)-7H-pyrrolo[2,3-d]pyrimidin-4-amine], the EC50 in data set [1] (setting [3]) was 280 nM. In addition, the “Mito-Safety Index” value in data set [2] was 60.4 and 60.3.

With `FC(F)(F)c1cc2c(N[C@H]3c4ccccc4OC[C@@H]3OCC3CCOC3)ncnc2[nH]1` (stereo partly drawn) [EP-0043842, N-((3R,4S)-3-((tetrahydrofuran-3-yl)methoxy)chroman-4-yl)-6-(trifluoromethyl)-7H-pyrrolo[2,3-d]pyrimidin-4-amine], the EC50 in data set [1] (setting [3]) was 620 nM. Besides, the “Mito-Safety Index” value in data set [2] was 38.4.

`CC(C)CO[C@H]1COc2ccccc2[C@@H]1Nc1nccc2[nH]c(C(F)(F)F)cc12` [EP-0043866]: the EC50 in data set [1] (setting [3]) came to 340 nM. In addition, in data set [2], the “Mito-Safety Index” value stood at 32.6.
